ChEMBL document CHEMBL1909046, “DrugMatrix in vitro pharmacology data”

Experiments:
[1] = molecular target: T1, 5-hydroxytryptamine receptor 2C (Homo sapiens, UniProt P28335); assay: DRUGMATRIX: Serotonin (5-Hydroxytryptamine) 5-HT2C radioligand binding (ligand: [3H] Mesulergine); type: cell membranes, CHO-K1, Membrane; details: cho-k1; Not Active = under 50% inhibition at 10 µM
T1 sequence (P28335 whole entry): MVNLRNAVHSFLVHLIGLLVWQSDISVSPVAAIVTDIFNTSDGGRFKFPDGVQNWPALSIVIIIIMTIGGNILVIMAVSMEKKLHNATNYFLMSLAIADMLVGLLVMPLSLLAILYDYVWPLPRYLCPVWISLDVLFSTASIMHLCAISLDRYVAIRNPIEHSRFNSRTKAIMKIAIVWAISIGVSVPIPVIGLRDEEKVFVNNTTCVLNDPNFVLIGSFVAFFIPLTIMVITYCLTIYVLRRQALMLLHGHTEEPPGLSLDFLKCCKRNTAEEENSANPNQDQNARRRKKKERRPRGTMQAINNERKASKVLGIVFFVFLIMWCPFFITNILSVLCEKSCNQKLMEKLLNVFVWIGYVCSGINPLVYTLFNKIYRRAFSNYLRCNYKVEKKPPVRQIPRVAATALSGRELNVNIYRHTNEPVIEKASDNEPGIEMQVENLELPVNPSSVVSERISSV

[2] = DRUGMATRIX: Sigma2 radioligand binding (ligand: [3H] Ifenprodil); type: cell membranes, Rattus norvegicus, Wistar, Brain, Membrane; details: Not Active = under 50% inhibition at 10 µM
[3] = molecular target: Vasopressin V1a receptor (Homo sapiens, UniProt P37288); type: cell membranes, Membrane; details: hek293; note: in other assays of this panel Not Active means under 50% inhibition at 10 µM
Vasopressin V1a receptor, sequence (P37288 whole entry): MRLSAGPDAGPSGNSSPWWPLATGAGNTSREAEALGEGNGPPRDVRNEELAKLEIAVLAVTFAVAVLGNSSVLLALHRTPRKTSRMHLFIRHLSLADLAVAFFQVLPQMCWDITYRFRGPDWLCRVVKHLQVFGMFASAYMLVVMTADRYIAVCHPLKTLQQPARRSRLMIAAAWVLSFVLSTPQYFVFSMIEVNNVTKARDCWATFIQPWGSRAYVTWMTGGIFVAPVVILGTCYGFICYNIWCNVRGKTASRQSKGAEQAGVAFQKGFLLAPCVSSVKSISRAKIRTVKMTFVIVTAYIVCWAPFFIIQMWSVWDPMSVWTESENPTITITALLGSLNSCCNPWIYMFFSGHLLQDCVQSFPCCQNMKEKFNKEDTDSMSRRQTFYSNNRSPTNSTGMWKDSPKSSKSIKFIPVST

[4] = DRUGMATRIX: Calcium Channel Type L, Phenylalkylamine radioligand binding (ligand: [3H] (-)-Desmethoxyverapamil (D-888)); type: cell membranes, Rattus norvegicus, Wistar, Brain, Membrane; details: Not Active = under 50% inhibition at 10 µM
[5] = molecular target: T2, Cholecystokinin receptor type A (Homo sapiens, UniProt P32238); type: cell membranes, Membrane; details: 1321-n1; note: in other assays of this panel Not Active means under 50% inhibition at 10 µM
T2 sequence (P32238 whole entry): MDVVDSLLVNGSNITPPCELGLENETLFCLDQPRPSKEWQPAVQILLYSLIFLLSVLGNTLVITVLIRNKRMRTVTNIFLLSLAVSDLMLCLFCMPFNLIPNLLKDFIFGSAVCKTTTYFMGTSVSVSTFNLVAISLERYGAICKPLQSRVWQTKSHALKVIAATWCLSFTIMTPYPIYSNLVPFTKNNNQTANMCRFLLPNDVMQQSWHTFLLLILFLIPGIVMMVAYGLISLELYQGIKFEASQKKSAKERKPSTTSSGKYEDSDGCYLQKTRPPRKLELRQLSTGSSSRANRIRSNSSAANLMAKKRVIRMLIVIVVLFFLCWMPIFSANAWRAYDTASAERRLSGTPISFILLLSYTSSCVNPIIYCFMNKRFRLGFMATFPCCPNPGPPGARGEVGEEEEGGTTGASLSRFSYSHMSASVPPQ

[6] = DRUGMATRIX: Interleukin IL-1 radioligand binding (ligand: [125I] interleukin 1beta); type: cell membranes, Membrane; details: nih3t3; Not Active = under 50% inhibition at 10 µM
[7] = molecular target: T3, Cysteinyl leukotriene receptor 1 (Homo sapiens, UniProt Q9Y271); type: cell membranes, CHO-K1, Membrane; details: cho-k1; note: in other assays of this panel Not Active means under 50% inhibition at 10 µM
T3 sequence (Q9Y271 whole entry): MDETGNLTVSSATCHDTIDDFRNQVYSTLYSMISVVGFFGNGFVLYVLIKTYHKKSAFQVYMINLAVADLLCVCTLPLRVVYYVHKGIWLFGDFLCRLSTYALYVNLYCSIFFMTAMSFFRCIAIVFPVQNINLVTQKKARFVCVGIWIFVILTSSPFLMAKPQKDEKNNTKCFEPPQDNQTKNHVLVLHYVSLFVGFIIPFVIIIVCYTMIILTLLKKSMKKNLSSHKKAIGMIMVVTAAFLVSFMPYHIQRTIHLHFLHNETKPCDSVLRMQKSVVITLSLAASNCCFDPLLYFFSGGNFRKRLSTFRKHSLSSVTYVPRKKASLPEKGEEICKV

[8] = molecular target: Melanocortin receptor 4 (Homo sapiens, UniProt P32245); type: cell membranes, Membrane; details: hek293; note: in other assays of this panel Not Active means under 50% inhibition at 10 µM
Melanocortin receptor 4, sequence (P32245 whole entry): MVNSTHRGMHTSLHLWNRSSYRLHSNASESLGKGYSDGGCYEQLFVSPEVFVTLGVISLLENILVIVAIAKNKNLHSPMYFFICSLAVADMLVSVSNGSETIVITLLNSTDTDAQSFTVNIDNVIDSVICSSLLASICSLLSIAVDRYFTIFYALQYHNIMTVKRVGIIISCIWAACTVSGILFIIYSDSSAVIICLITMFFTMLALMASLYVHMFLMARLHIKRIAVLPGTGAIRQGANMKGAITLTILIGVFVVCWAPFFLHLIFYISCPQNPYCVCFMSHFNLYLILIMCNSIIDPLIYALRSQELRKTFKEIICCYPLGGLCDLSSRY

[9] = molecular target: Kappa-type opioid receptor (Homo sapiens, UniProt P41145); assay: DRUGMATRIX: Opiate kappa (OP2, KOP) radioligand binding (ligand: [3H] Diprenorphine); type: cell membranes, HEK293, Membrane; details: hek293; Not Active = under 50% inhibition at 10 µM
Kappa-type opioid receptor, sequence (P41145 whole entry): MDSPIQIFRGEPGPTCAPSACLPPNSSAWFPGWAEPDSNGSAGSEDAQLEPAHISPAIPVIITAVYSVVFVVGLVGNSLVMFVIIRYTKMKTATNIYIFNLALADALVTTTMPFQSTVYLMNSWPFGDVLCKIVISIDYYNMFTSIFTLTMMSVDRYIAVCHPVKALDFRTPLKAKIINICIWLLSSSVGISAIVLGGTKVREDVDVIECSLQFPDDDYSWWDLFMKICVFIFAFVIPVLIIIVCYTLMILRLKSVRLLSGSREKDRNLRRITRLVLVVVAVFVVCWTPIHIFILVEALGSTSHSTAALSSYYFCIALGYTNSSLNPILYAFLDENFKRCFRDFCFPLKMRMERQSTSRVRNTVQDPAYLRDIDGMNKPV

[10] = DRUGMATRIX: Potassium Channel [KATP] radioligand binding (ligand: [3H] Glyburide); type: cell membranes, Membrane; details: hit-t15; Not Active = under 50% inhibition at 10 µM
[11] = molecular target: Matrix metalloproteinase-9 (Homo sapiens, UniProt P14780); type: cell-based
Matrix metalloproteinase-9, sequence (P14780 whole entry): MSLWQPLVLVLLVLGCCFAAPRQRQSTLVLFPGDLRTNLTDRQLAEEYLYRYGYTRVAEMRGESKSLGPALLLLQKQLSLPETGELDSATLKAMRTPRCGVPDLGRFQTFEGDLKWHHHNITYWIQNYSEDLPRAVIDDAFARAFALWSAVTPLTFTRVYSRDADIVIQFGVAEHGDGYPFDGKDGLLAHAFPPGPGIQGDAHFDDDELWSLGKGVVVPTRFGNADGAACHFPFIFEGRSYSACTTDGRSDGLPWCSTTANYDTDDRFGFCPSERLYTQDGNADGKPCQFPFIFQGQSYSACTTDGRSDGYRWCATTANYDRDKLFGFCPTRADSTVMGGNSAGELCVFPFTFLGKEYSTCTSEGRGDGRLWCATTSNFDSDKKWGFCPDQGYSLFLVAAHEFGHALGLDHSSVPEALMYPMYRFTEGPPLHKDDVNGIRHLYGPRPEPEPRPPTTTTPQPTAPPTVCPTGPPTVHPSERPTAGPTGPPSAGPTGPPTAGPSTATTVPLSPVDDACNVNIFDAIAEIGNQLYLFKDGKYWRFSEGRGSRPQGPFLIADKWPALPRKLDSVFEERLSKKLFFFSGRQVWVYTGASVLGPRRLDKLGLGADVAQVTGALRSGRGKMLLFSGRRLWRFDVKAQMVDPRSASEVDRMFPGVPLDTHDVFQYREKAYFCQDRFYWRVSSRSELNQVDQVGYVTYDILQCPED

[12] = molecular target: Mitogen-activated protein kinase 3 (Homo sapiens, UniProt P27361); assay: DRUGMATRIX: Protein Serine/Threonine Kinase, ERK1 enzyme inhibition (substrate: Myelin Basic Protein); design: species or system Escherichia coli; details: Not Active = under 50% inhibition at 10 µM
Mitogen-activated protein kinase 3, sequence (P27361 whole entry): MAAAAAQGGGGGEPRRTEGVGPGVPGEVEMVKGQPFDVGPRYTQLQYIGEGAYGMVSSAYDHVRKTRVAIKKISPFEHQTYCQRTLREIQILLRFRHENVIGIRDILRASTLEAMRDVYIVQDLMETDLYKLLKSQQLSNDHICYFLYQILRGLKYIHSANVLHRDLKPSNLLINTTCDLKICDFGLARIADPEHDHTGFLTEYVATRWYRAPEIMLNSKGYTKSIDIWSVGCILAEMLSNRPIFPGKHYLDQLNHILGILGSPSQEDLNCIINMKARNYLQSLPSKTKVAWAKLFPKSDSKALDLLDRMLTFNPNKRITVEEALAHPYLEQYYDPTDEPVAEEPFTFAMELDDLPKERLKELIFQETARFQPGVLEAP

[13] = molecular target: Cytochrome P450 3A4 (Homo sapiens, UniProt P08684); details: bti-tn-5b1-4; note: in other assays of this panel Not Active means under 50% inhibition at 10 µM
Cytochrome P450 3A4, sequence (P08684 whole entry): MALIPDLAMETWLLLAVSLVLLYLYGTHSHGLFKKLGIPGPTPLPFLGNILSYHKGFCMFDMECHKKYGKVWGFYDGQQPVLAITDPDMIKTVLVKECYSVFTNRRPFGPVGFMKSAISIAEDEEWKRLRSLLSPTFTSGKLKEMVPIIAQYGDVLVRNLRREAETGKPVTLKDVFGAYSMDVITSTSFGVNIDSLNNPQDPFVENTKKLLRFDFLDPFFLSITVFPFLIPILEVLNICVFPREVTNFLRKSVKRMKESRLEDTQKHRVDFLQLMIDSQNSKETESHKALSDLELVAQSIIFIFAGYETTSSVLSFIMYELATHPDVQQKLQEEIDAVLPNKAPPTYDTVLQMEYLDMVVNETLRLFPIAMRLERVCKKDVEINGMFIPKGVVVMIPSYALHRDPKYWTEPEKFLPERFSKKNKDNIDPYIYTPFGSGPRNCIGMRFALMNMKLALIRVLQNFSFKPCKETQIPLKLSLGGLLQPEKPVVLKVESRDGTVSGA

[14] = molecular target: T4, Estrogen receptor (Homo sapiens, UniProt P03372); details: sf9; note: in other assays of this panel Not Active means under 50% inhibition at 10 µM
T4 sequence (P03372 whole entry): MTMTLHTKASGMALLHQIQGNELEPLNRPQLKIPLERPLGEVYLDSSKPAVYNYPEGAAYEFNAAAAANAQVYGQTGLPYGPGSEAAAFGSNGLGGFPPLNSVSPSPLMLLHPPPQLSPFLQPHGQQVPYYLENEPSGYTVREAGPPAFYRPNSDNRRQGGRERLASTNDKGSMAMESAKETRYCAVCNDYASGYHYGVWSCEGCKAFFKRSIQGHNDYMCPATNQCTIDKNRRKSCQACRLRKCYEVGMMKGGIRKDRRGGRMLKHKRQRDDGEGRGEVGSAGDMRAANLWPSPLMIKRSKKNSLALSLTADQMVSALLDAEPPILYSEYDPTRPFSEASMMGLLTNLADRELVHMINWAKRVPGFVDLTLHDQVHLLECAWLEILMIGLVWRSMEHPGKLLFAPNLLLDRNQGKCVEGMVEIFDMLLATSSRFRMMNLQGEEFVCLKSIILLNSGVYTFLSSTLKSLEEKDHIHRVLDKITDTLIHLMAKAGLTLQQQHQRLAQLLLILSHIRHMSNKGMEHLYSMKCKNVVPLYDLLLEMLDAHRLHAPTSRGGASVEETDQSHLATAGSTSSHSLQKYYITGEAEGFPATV

Row | SMILES | IC50 [1] | IC50 [2] | Ki [2] | IC50 [3] | IC50 [5] | IC50 [6] | Ki [6] | IC50 [7] | IC50 [8] | IC50 [9] | IC50 [10] | Ki [10] | IC50 [11] | IC50 [12] | IC50 [13] | Ki [13] | IC50 [14] | IC50 [4] | Ki [4] | also measured
1 | Fc1ccc([C@@H]2CCNC[C@H]2COc2ccc3c(c2)OCO3)cc1 [PAROXETINE] | Not Active | Not Active | Not Active | Not Active | Not Active | Not Active | Not Active | Not Active | Not Active | Not Active | Not Active | Not Active | Not Active | Not Active | Not Active | Not Active | Not Active | – | – | IC50 ([4]; read-out: IC50): 0.747 µM; Ki ([4]; read-out: Ki): 0.726 µM
2 | CC(=O)CCCCn1c(=O)c2c(ncn2C)n(C)c1=O [PENTOXIFYLLINE] | Not Active | Not Active | Not Active | Not Active | Not Active | Not Active | Not Active | Not Active | Not Active | Not Active | Not Active | Not Active | Not Active | Not Active | Not Active | Not Active | Not Active | Not Active | Not Active | –
3 | CNC(=O)Oc1ccc2c(c1)[C@]1(C)CCN(C)[C@@H]1N2C [PHYSOSTIGMINE] | Not Active | Not Active | Not Active | Not Active | Not Active | Not Active | Not Active | Not Active | Not Active | Not Active | Not Active | Not Active | Not Active | Not Active | Not Active | Not Active | Not Active | Not Active | Not Active | –
4 | CN1C(C(=O)Nc2ccccn2)=C(O)c2ccccc2S1(=O)=O [PIROXICAM] | Not Active | Not Active | Not Active | Not Active | Not Active | Not Active | Not Active | Not Active | Not Active | Not Active | Not Active | Not Active | Not Active | Not Active | Not Active | Not Active | Not Active | Not Active | Not Active | –
5 | CCCc1cc(=O)[nH]c(=S)[nH]1 [PROPYLTHIOURACIL] | Not Active | Not Active | Not Active | Not Active | Not Active | Not Active | Not Active | Not Active | Not Active | Not Active | Not Active | Not Active | Not Active | Not Active | Not Active | Not Active | Not Active | Not Active | Not Active | –
